Laboratory results published in ChEMBL document CHEMBL1152471 (2008).
Values after ≈ are worked out from the molar mass of the structure shown.

Legend:
Type in all cases: functional
[1] = system: Mycobacterium tuberculosis; experiment: Antituberculosis activity against linezolid-resistant Mycobacterium tuberculosis having mutation in 23S rRNA with alteration in domain V
[2] = system: Mycobacterium tuberculosis; experiment: Antituberculosis activity against linezolid-resistant Mycobacterium tuberculosis by bactec 460 TB method
[3] = system: Mycobacterium tuberculosis; experiment: Antituberculosis activity against linezolid-resistant Mycobacterium tuberculosis without mutation in 23S rRNA
[4] = system: Mycobacterium tuberculosis; experiment: Antituberculosis activity against linezolid-resistant Mycobacterium tuberculosis having mutation in 23S rRNA with identical G to T base pair exchange at position 2061
[5] = system: Mycobacterium tuberculosis; experiment: Antituberculosis activity against linezolid-resistant Mycobacterium tuberculosis having mutation in 23S rRNA with G to T base pair exchange at position 2576
[6] = system: Mycobacterium tuberculosis; experiment: Antituberculosis activity against linezolid-resistant Mycobacterium tuberculosis by bactec MGIT 960 method

CC(=O)NC[C@H]1CN(c2ccc(N3CCOCC3)c(F)c2)C(=O)O1 [LINEZOLID]
MIC [1]: >=64 ug ml-1 | MIC [2]: ≤ 1 mg/L | MIC [3]: 4 mg/L (≈ 11.9 µM) | MIC [4]: 32 mg/L (≈ 94.9 µM) | MIC [5]: 16 mg/L (≈ 47.4 µM) | MIC [6]: ≤ 1 mg/L
